Assay [1] addresses T1, GPER (Homo sapiens, UniProt Q99527). In words: Immunostaining of endogenous receptors in MCF-7 cells. The note with it: MCF-7, 1 hour.
Assay [2] deals with T1, GPER. As to the kind of experiment: Immunostaining of surface and intracellular GPER in SKBR3 cells. The settings on record: SKBR3, 100 uM, 1 hour.
Another assay concerns the target T2, native GPER (Homo sapiens, UniProt Q99527).
T2 construct: Similar results were obtained for native GPER in her2+ and TNBC breast cancer cells; endogenous in cells; host or cells: SKBR3 and HCC-1806 human breast cancer cells
As to the kind of experiment: Surface GPER immunostaining in human breast cancer cells (SKBR3, HCC-1806). Format: cell-based. How it is done: FIG. 4. PROTAC prototype Ul-EP001 reduces surface GPER. Similar results were obtained for native GPER in her2+ and TNBC breast cancer cells.
FIG. 18. […] Structure (A) and NMR spectrum (B) of UI-EP001. Human SKBR3 (Her2+) and HCC-1806 (TNBC) breast cancer cells were exposed to vehicle (untreated) or 100 µM of partial-PROTAC or E2p-PROTAC, Ul-EP001 for 16 hours. Cells were immunostained with GPER antibodies for 30 minutes and surface GPER was detected using goat anti-rabbit Alexa 594 IgG (red). Nuclei were countertained with DAPI (blue). (C).HA-GPER or HA-β1AR cells were treated with Ul-EP001 for the indicated times and immunoblotted with HA antibody (D) or immunostained for surface receptor (E). Total corrected red fluorescence (red) (TCRF) of treated and untreated HA-GPER or HA-β1AR cells was measured by subtracting cell background. […] Data not shown, no difference in surface GPER expression is measured in cells similarly treated with free 17β-E2.
To screen GPER-PROTACs, a GPER binding assay that measures a high-affinity (Kd= 2.7 nm), limited capacity, displaceable, single binding site specific for estrogens in plasma membranes of human SKBR3 breast cancer cells that express GPER but lack nuclear ER may be used (Thomas et al., 2005). GPER undergoes an uncommon mechanism of endocyosis that requires neither receptor phosphorylation, interaction with β--arrestin nor lysosomal activity. […]

Another assay concerns ERs (ERa and ERb). In words: Fluorescence polarization competitive binding with E2-FITC in cytosolic fractions from MCF-7 cells. The arrangement: species or system human. The protocol: ER binding was measured using cytosolic fractions prepared from MCF-7 cells by fluorescence polarization. MCF-7 (10^6 cells) were detached in EDTA, cell homogenates were prepared using a Dounce homogenizer and subcellular fractions were isolated by differential centrifugation as previously described (Filardo et al, 2002). The protein concentration of each fraction was determined by bichinchoninic acid (BCA) assay (Pierce ™ BCA protein assay kit, Thermo Fisher). For saturation binding assay of the probe, different concentrations of cytosolic fraction were diluted in assay buffer (10 mM Tris-HCl, pH 7.4; 50 mM KCl, 10% glycerol, 0.1 mM dithiothreitol (DTT), 1 ug/mL BGG, 10 nM protease inhibitor cocktail (Roche) to a final volume of 200 uL containing 10 nM Ez-FITC. The mixture was incubated at ambient temperature for 1 hour and interaction of the probe with cytosolic protein was determined by fluorescence polarization (FP). For competitive binding assay, an aliquot of cytosolic fraction and E2-FITC (10 nM final concentration) was mixed and incubated at 4° C. for 1 hour. Then different concentrations of drugs and controls were added to the mixture. The mixture was incubated for an additional hour and then subjected to FP. All samples were measured in triplicate. Negative controls (only cytosolic fraction or only E2-FITC) and positive control (E2-FITC and cytosolic fraction at 100% binding without treatment) were included. Relative binding affinities were expressed as the percentage of FP recorded from treated wells compared to the positive control. FP values in millipolarization units (mP) were measured at ex/em wavelength of 485 nm/530 nm respectively using the Spectra Max plus 384 Microplate Spectrophotometer (Molecular Devices, Sunnyvale, CA) in 96-well, black, flat-bottom microplates (Greiner Bio-One North America, Inc., Monroe, NC). Kd values of the probe were determined by nonlinear regression fitting of the saturation curves, while IC50 values of treatment were determined by nonlinear regression fitting of the competition curves.
In contrast to GPER, ERa and ERb are intracellular receptors that are concentrated in the cytoplasm and in the nucleus. […] A saturation analysis was performed using 10 nM E2-FITC and increasing concentrations of cytosolic protein (FIG. 25D).

In a further assay the target is T3, ERα (Homo sapiens, UniProt P03372).
T3 sequence (P03372 1-595): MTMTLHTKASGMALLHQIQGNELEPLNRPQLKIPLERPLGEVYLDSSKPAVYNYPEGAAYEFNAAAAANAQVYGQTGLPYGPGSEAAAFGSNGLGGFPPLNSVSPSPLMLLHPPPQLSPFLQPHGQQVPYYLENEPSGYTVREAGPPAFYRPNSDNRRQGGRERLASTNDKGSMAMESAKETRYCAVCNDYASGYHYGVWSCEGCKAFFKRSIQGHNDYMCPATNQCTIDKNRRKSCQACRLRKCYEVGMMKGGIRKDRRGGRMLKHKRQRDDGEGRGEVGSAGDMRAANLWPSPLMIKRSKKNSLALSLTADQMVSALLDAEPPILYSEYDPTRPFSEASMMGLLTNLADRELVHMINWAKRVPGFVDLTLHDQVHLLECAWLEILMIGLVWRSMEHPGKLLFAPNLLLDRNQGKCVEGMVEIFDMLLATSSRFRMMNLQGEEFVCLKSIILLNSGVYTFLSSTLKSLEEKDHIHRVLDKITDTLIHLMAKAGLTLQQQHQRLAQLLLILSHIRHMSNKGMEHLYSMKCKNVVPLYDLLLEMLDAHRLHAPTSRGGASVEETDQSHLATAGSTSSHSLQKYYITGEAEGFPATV
As to the kind of experiment: Immunostaining of endogenous receptors in MCF-7 cells. The note with it: MCF-7, 1 hour.

SMILES strings stand for the structures.

T1 sequence (Q99527 whole entry): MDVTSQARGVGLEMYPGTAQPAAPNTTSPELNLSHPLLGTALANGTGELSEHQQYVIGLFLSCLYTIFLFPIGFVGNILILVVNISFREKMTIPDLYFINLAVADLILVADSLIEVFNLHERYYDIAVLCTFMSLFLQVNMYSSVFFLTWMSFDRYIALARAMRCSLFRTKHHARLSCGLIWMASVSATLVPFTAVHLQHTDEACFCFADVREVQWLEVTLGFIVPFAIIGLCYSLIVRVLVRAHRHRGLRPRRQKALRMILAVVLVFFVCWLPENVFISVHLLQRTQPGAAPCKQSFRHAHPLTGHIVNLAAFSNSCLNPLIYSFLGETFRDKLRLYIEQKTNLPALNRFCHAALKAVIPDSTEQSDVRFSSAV
T2 sequence (Q99527 whole entry): as above

Turning to `Cc1ncsc1-c1ccc(CNC(=O)C2CC(O)CN2C(=O)C(NC(=O)COCCOCCOCCOCC(=O)OC2CCC3C4CCc5cc(O)ccc5C4CCC23C)C(C)(C)C)cc1` (stereo not shown) [UI-EP001], the “intracellular GPER expression” value on GPER [1] is recorded as “Clear site-specific reduction”. The “plasma membrane and total GPER” value at GPER [2] was “reduced plasma membrane and total GPER”. For the same compound, on native GPER, the “expression of native GPER” value is reported as “downmodulates the expression of native GPER”. Besides, the “RBA%, ERs” value in the assay on ERs (ERa and ERb) (IC50 of 17β-E2 divided by IC50 of test compound) came out at 32%. This compound showed an IC50 with ERs (ERa and ERb) (MCF-7 cytosolic fraction, 10 nM E2-FITC, mean ± SD of triplicates) of 17.2 ± 8.2 nM. Also, the equilibrium dissociation constant (Kd) with ERs (ERa and ERb) (MCF-7 cytosolic fractions, E2-FITC, read-out: binding dissociation constant (Kd), ER) was determined as 17.2 nM. For the same compound, on ERα, the “nuclear ERα expression” value is listed as “Clear site-specific reduction”.

Values taken from patent US20230312639A1, “GPER PROTEOLYTIC TARGETING CHIMERAS” (University of Iowa Research Foundation, priority 2020, published 2023).
